Assay results taken from patent US20240366611A1, “METHODS OF TREATING A DISEASE OR DISORDER” (Ascentage Pharma (Suzhou) Co., Ltd., priority 2021, published 2024).

Tests used:
Type in all cases: cell-based
Settings in all cases: 7 days of treatment
[1] = tested on: HBG mRNA in human CD34+ HSC; test: HBG mRNA level in human CD34+ HSC (qRT-PCR)
Method: (§1) Human cord blood CD34+ hematopoietic stem cells (HSC) were first expanded in the expansion medium (StemSpan SFEM II+StemSpan CD34 Expansion Supplement) to achieve the desired number of cells, and then differentiated in differentiation medium (StemSpan SFEM II+StemSpan Erythroid Expansion Supplement (100×)) for three days without drug treatment. Various concentrations of Cpd. 73 were added on the fourth day of differentiation and further incubated with the cells for another 7 days. 33 mM Hydroxyurea was used as the control.
After 7 days of treatment, the cells were collected. Total RNA was isolated using Trizol LS reagent (Invitrogen-10296028) and 1 μg RNA of each sample was reverse transcribed into cDNA using High Capacity cDNA Reverse Transcription Kit (AB (Applied Biosystems)-4374966), according to the manufacturer's instructions. Quantitative RT-PCR (qRT-PCR) was performed using an Applied Biosystems QuantStudio 7 Flex system with the primer pairs shown as below: hHBG-mRNA-F1 (5′-[…]-3′) and hHBG-mRNA-R1 (5′-TCACTCAGCTGGGCAAAGG-3′). […] The HBG mRNA level were 1.09-, 2.49-, 7.84-, 9.69- and 12.2-folds of the vehicle group when the cells were treated with 0.01 μM, 0.03 μM, 0.1 μM, 0.3 μM and 1.0 μM Cpd. 73 respectively. […] 73 which increased HBG mRNA by 12.2 folds (p<0.0001, vs. vehicle). The HBG mRNA level of cells treated with 33 mM Hydroxyurea, an approved medicine for SCD, was 6.46-folds of the vehicle group.

HbF in human CD34+ HSC = test: HbF concentration in human CD34+ HSC by ELISA; set-up: HbF concentration, folds of the vehicle group: dose or concentration left out as unconfirmed
Method: as §1
After 7 days of treatment, the cells were collected and lysed. The concentration of HbF in the cell lysate was determined using a Human Fetal Hemoglobin (HBF) ELISA Kit (MyBioSource, MBS2024474). […] The cellular HbF concentration were 1.27-, 1.39-, 1.52-, 1.58- and 1.69-folds of the vehicle group when the cells were treated with 0.01 μM, 0.03 μM, 0.1 μM, 0.3 μM and 1.0 μM Cpd. 73 respectively. […] 73 where the cellular HbF concentration was 1.69-folds of the vehicle group (p<0.01). HbF concentration of cells treated with 33 mM Hydroxyurea was 1.18-folds of the vehicle group. Clinically, small increases of HbF concentration (1-5%) have the potential to provide clinical benefits to all SCD patients.

[2] = tested on: HbF+ cells in human CD34+ HSC; test: HbF+ cell % in human CD34+ HSC by FACS
Method: as §1
After 7 days of treatment, the cells were collected and stained with PE-conjugated Mouse Anti-Human Fetal Hemoglobin (BD, 560041). The percentage of HbF+ cells were quantified by FACS. […] 73 respectively. […] 73 where HbF+ cell % was 2.58-folds of the vehicle group (p<0.0001). The % of HbF+ cells was 1.82-folds of the vehicle group when the cells were treated with 33 mM Hydroxyurea.

Structure (SMILES): NC(=O)NO [Hydroxyurea, reference compound]
- HBG mRNA level, folds of the vehicle group [1]: 6.46 folds
- HbF concentration, folds of the vehicle group (HbF in human CD34+ HSC): 1.18 folds
- % of HbF+ cells, folds of the vehicle group [2]: 1.82 folds
